Experiments:
human AML MV-4-11 cells = test: Inhibition of cell proliferation in cancer cell lines (CellTiter Aqueous One); assay type: cell-based; parameters: key: Active: Compounds with an IC50 value less than 30 μM were deemed to be active.; Not Active: Compounds with an IC50 value less than 30 μM were deemed to be active; conditions: 72 h
How it was run: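 Exponentially growing MV-4-11 cells (5×10^4/well) were treated immediately with two-fold dilutions of compound from 30 μM to 0.2 μM, in triplicate, for 72 h at 37° C, 5% CO2. Viability was measured by MTS absorbance at 490 nm after 3–4 h. Proliferation relative to DMSO after blank correction gave IC50.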

[1] = target: T1, Brd4 bromodomain 1 (BRD4(1)) (Homo sapiens, UniProt O60885); test: Inhibition of tetra-acetylated histone H4 binding to BET bromodomains (TR-FRET); parameters: key: Active: Compounds with an IC50 value less than 30 μM were deemed to be active.; Not Active: Compounds with an IC50 value less than 30 μM were deemed to be active; conditions: first bromodomain of Brd4, tetra-acetylated histone H4 peptide
T1 construct: made in house; host or cells: E. coli BL21(DE3)
How it was run: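 N-terminally His-tagged bromodomain (200 nM) from E. coli was mixed with biotinylated tetra-acetylated histone H4 peptide (25-50 nM), Eu-streptavidin and XL665 anti-His, plus compound, in HEPES pH 7.4 buffer with 0.2% DMSO. After 2 h at room temperature, the 665/620 nm TR-FRET decrease gave IC50 from dose-response curves.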

hIL-6 mRNA = test: Inhibition of hIL-6 mRNA transcription in LPS-stimulated U937 macrophages; assay type: cell-based, human; parameters: key: Active: Compounds with an IC50 value less than 30 μM were deemed to be active.; Not Active: Compounds with an IC50 value less than 30 μM were deemed to be active; conditions: U937 cells differentiated with PMA, LPS stimulation, 3 h
Method: In this example, hIL-6 mRNA in tissue culture cells was quantitated to measure the transcriptional inhibition of hIL-6 when treated with a compound of the present disclosure.
A human leukemic monocyte lymphoma cell line (U937) was plated (3.2×10^4 cells per well) in a 96-well plate in 100 μL RPMI-1640 containing 10% FBS and penicillin/streptomycin, and differentiated into macrophages for 3 days in 60 ng/mL PMA ([…]) at 37° C. in 5% CO2 prior to the addition of the compound of interest. The cells were pretreated for 1 h with the test compound prior to stimulation with 1 ug/mL lipopolysaccharide from Escherichia coli. The cells were incubated at 37° C. for 3 h before the cells were harvested. At time of harvest, the spent media was removed from the cells and the cells were rinsed in 200 μL PBS. Cell lysis solution (70 μL) was added the cells in each well and incubated for 5-10 min at room temperature, to allow for complete cell lysis and detachment. mRNA was then prepared using the “mRNA Catcher PLUS plate” (Invitrogen), according to the protocol supplied. After the last wash, as much wash buffer as possible was aspirated without allowing the wells to dry. Elution buffer (E3, 70 μL) was then added to each well. mRNA was then eluted by incubating the mRNA Catcher PLUS plate with Elution Buffer for 5 min at 68° C. and then immediately placing the plate on ice.
The eluted mRNA isolated was then used in a one-step quantitative real-time PCR reaction, using components of the Ultra Sense Kit together with Applied Biosystems primer-probe mixes. Real-time PCR data was analyzed, normalizing the Ct values for hIL-6 to an internal control, prior to determining the fold induction of each unknown sample, relative to the control.

hApoA-1 mRNA = test: Up-regulation of hApoA-1 mRNA transcription in Huh7 cells; assay type: cell-based, human; parameters: key: Active: Compounds with an EC170 value less than 30 μM were deemed to be active; conditions: 48 h treatment
Method: In this example, ApoA-I mRNA in tissue culture cells was quantitated to measure the transcriptional up-regulation of ApoA-I when treated with a compound of the present disclosure.
Huh7 cells (2.5×10^5 per well) were plated in a 96-well plate using 100 μL DMEM per well, (Gibco DMEM supplemented with penicillin/streptomycin and 10% FBS), 24 h before the addition of the compound of interest. After 48 h treatment, the spent media was removed from the Huh-7 cells and placed on ice (for immediate use) or at −80° C. (for future use) with the “LDH cytotoxicity assay Kit II” from Abcam. The cells remaining in the plate were rinsed with 100 μL PBS.
Then 85 μL of cell lysis solution was added to each well and incubated for 5-10 min at room temperature, to allow for complete cell lysis and detachment. mRNA was then prepared using the “mRNA Catcher PLUS plate” from Life Technologies, according to the protocol supplied. After the last wash, as much wash buffer as possible was aspirated without allowing the wells to dry. Elution Buffer (E3, 80 μL) was then added to each well. mRNA was then eluted by incubating the mRNA Catcher PLUS plate with Elution Buffer for 5 min at 68° C., and then 1 min at 4° C. Catcher plates with mRNA eluted were kept on ice for use or stored at −80° C.
The eluted mRNA isolated was then used in a one-step real-time PCR reaction, using components of the Ultra Sense Kit together with Life Technologies primer-probe mixes. Real-time PCR data was analyzed, using the Ct values, to determine the fold induction of each unknown sample, relative to the control (that is, relative to the control for each independent DMSO concentration).
Compounds with an EC170 value less than 30 μM were deemed to be active.

c-myc in MV4-11 cells = test: Inhibition of c-myc expression in cancer cell lines (mRNA, real-time PCR); assay type: cell-based, Human; parameters: key: Active: Compounds with an IC50 value less than 30 μM were deemed to be active.; Not Active: Compounds with an IC50 value less than 30 μM were deemed to be active; conditions: 3 h
Method: MV4-11 cells (2.5×10^4 cells) were plated in 96 well U-bottom plates with test compound or DMSO (0.1%), and incubated for 3 h at 37° C. Cells were then harvested by centrifugation, lysed, and mRNA was isolated using the mRNA catcher plus kit (Invitrogen). Reverse transcription of the mRNA and duplex amplification of the c-myc and cyclophilin cDNAs was performed using the RNA Ultrasense kit (Invitrogen) and a ViiA7 real-time PCR machine (Applied Biosystems). IC50 values were determined from a dose response curve.

| Cell Proliferation activity (IC50 < 30 μM) (human AML MV-4-11 cells) | FRET activity BRD4(1) [1] | IL-6 activity (IC50 < 30 μM) (hIL-6 mRNA) | c-myc activity (IC50 < 30 μM) (c-myc in MV4-11 cells) | melting point [°C] | Structure (SMILES) | ApoA-1 activity (EC170 < 30 μM) (hApoA-1 mRNA) |
| --- | --- | --- | --- | --- | --- | --- |
| Active | Active | Active | Active | 192 to 193 | COc1cnc(-c2nc3cc(OC)cc(OC)c3c(=O)[nH]2)c(NC2CCN(C(=O)C(C)C)CC2)c1 [Example 32, 2-(3-((1-Isobutyrylpiperidin-4-yl)amino)-5-methoxypyridin-2-yl)-5,7-dimethoxyquinazolin-4(3H)-one] | Active |
| Active | Active | Active | Active | 252 to 253 | COc1ccc(-c2nc3cc(OC)cc(OC)c3c(=O)[nH]2)c(NC2CCN(C)CC2)c1 [Example 1, 5,7-Dimethoxy-2-(4-methoxy-2-((1-methylpiperidin-4-yl)amino)phenyl)-quinazolin-4(3H)-one] | Active |
| Active | Active | Active | Active | – | COc1cc(OC)c2c(=O)[nH]c(-c3ncccc3NC3CCN(C(=O)C(C)C)CC3)nc2c1 [Example 36, 2-(-((1-Isobutyrylpiperidin-4-yl)amino)pyridin-2-yl)-5,7-dimethoxyquinazolin-4(3H)-one] | Active |
| Not Active | Active | Active | Active | 151 to 152 | CCNC(=O)N1CCC(Nc2cccnc2-c2nc3cc(OC)cc(OC)c3c(=O)[nH]2)CC1 [Example 52, 4-((2-(5,7-dimethoxy-4-oxo-3,4-dihydroquinazolin-2-yl)pyridin-3-yl)amino)-N-ethylpiperidine-1-carboxamide] | – |
| – | Active | Active | – | 230 to 231 | COc1ccc(-c2nc3cc(OC)cc(OC)c3c(=O)[nH]2)c(NCCN2CCN(C)CC2)c1 [Example 25, 5,7-Dimethoxy-2-(4-methoxy-2-((2-(4-methylpiperazin-1-yl)ethyl)amino)phenyl)-quinazolin-4(3H)-one] | Active |
| Active | Active | Active | Active | 225 to 228 | COc1ccc(-c2nc3cc(OC)cc(OC)c3c(=O)[nH]2)c(NCCCN2CCNCC2)c1 [Example 28, 5,7-Dimethoxy-2-(4-methoxy-2-[3-(piperazin-1-yl)propylamino]phenyl)quinazolin-4(3H)-one] | – |
| Active | Active | Active | Active | 235 to 237 | COc1cc(OC)c2c(=O)[nH]c(-c3ncccc3NCCNC(=O)C(C)C)nc2c1 [Example 56, N-(2-((2-(5,7-Dimethoxy-4-oxo-3,4-dihydroquinazolin-2-yl)pyridin-3-yl)amino)ethyl)isobutyramide] | – |
| Active | Active | Active | Active | 208 to 210 | COc1ccc(-c2nc3cc(OC)cc(OC)c3c(=O)[nH]2)c(NCCCNC(C)C)c1 [Example 20, 2-(2-((3-(Isopropylamino)propyl)amino)-4-methoxyphenyl)-5,7-dimethoxyquinazolin-4(3H)-one] | Active |
| Active | Active | Active | Active | 218 to 219 | COc1cc(OC)c2c(=O)[nH]c(-c3ncccc3NC3CCN(C(=O)C(F)(F)F)CC3)nc2c1 [Example 46, 5,7-Dimethoxy-2-(3-((1-(2,2,2-trifluoroacetyl)piperidin-4-yl)amino)pyridin-2-yl)quinazolin-4(3H)-one] | – |
| Active | Active | Active | Active | 227 to 228 | COc1ccc(-c2nc3cc(OC)cc(OC)c3c(=O)[nH]2)c(NCCN2CCN(C(C)C)CC2)c1 [Example 22, 2-(2-((2-(4-Isopropylpiperazin-1-yl)ethyl)amino)-4-methoxyphenyl)-5,7-dimethoxyquinazolin-4(3H)-one] | – |
| Active | Active | Active | Active | 165 to 166 | COC(=O)C(=O)N1CCC(Nc2cccnc2-c2nc3cc(OC)cc(OC)c3c(=O)[nH]2)CC1 [Example 55, Methyl-2-(4-((2-(5,7-dimethoxy-4-oxo-3,4-dihydroquinazolin-2-yl)pyridin-3-yl)amino)piperidin-1-yl)-2-oxoacetate] | – |
| Active | Active | Active | Active | 261 to 262 | COc1cc(OC)c2c(=O)[nH]c(-c3ncccc3NC3CCN(C(=O)C(=O)N(C)C)CC3)nc2c1 [Example 51, 2-(4-((2-(5,7-Dimethoxy-4-oxo-3,4-dihydroquinazolin-2-yl)pyridin-3-yl)amino)piperidin-1-yl)-N,N-dimethyl-2-oxoacetamide] | – |
| Active | Active | Active | Active | 209 to 210 | COc1cc(OC)c2c(=O)[nH]c(-c3ncccc3NC3CCN(C(=O)C(C)(C)C)CC3)nc2c1 [Example 48, 5,7-Dimethoxy-2-(3-((1-pivaloylpiperidin-4-yl)amino)pyridin-2-yl)quinazolin-4(3H)-one] | – |

From patent US10500209B2, “Quinazolinones as bromodomain inhibitors” (Zenith Epigenetics Ltd., priority 2013, dated 2019)
